# Measured values reported in paper PMC9312958, “A Novel and Selective Dopamine Transporter Inhibitor, (S)-MK-26, Promotes Hippocampal Synaptic Plasticity and Restores Effort-Related Motivational Dysfunctions” (Biomolecules, 2022).
# Test system: extracellular dopamine levels
# Assay: In vivo microdialysis of extracellular dopamine (mPFC, NAc shell, NAc core)
# Parameters: species or system Male Sprague Dawley rats
# Conditions: for DA Concentrations (as Determined from AUCs): mean ± SEM
# Procedure: Male Sprague Dawley rats (250–350 g, Janvier, France) were used for all in vivo microdialysis experiments. Animals were kept in groups of four in standard cages (38 cm × 60 cm × 20 cm) and were acclimated to the facility for at least ten days before the beginning of the experiment under controlled environmental conditions (22 ± 2 °C, 60% humidity, 12 h light/dark cycle, with lights on from 08:00 to 20:00 h), with water and standard laboratory food provided ad libitum. To limit the stress due to manipulation during the experiments, each animal was daily handled for approximately 1–2 min throughout the habituation period and contact with the animal house maintenance personnel was limited to a single attendant. The bedding in the home cages was never changed, neither the day before nor the day of the experiment. All experiments were performed between 10:00–18:00 h. (S)-MK-26 (1 or 10 mg/kg) or vehicle (Kolliphor 30% in distilled water) were freshly prepared on the day of the experiment and i.p. administered at a volume of 1.5 mL/kg. The day before the microdialysis experiment, rats were positioned in a stereotaxic apparatus (Stoelting Co., Wood Dale, IL, USA) and under isoflurane anaesthesia (1.5–2%) (Harvard Apparatus, Holliston, MA, USA) implanted with a vertical microdialysis probe. A probe with dialysis membrane of approximately 2–3 mm of free surface (prepared as previously described) was directed unilaterally at the mPFC (PrL and IL; coordinates: 3.0 mm anterior and 0.7 mm lateral to bregma, and 5.5 mm ventral to dura), at the NAc shell (coordinates: 2.0 mm anterior and 0.8 mm lateral to bregma, and 8.0 mm ventral to dura) or NAc core (coordinates: 1.6 mm anterior and 1.6 mm lateral to bregma, and 7.6 mm ventral to dura), according to the rat brain atlas. On the day of the experiment, the animals were transferred to a sound-proof room and after 1 h habituation period, the microdialysis probe was connected with polyethylene tubing to a CMA/100 microinfusion pump (Harvard Apparatus, Holliston, MA, USA) and perfused with a Ringer’s solution (147 mM NaCl, 3 mM KCl and 1.2 mM CaCl2, pH 6.5) at a flow rate of 2.5 µL/min. After an equilibration period of a 2 h of the perfusion medium with the extracellular fluid, dialysate aliquots of 37.5 µL were collected (every 15 min during the experiment) in polyethylene tubes kept on ice for the determination of dopamine concentrations. After collecting at least four dialysate aliquots, rats were i.p. injected with vehicle or (S)-MK-26 (1 or 10 mg/kg), and ten more dialysate aliquots were collected every 15 min. Dopamine concentrations in the dialysates from the NAc (core and shell) and mPFC were measured by high pressure liquid chromatography (HPLC) on a 7.5 cm × 3.0 mm i.d., Supelcosil C18, 3 µm particle size column, (Supelco, Supelchem, Milan, Italy) coupled to electrochemical detection (Coulochem II, ESA, Cambridge, MA, USA) using a 4011 dual cell, as previously described. Detection was performed in reduction mode, with potentials set to +350 and −180 mV. The mobile phase was 0.06 M citrate/acetate pH 4.2, containing methanol 20% v/v, 0.1 mM EDTA, 1 µM triethylamine, and 0.03 mM sodium dodecyl sulphate at a flow rate of 0.6 mL/min. The sensitivity of the assay was 0.125 pg. At the end of the experiments, the rats were sacrificed by decapitation; the brains were immediately removed from the skull and stored in 4% aqueous formaldehyde for 12–15 days. After this period, 40 µm coronal brain sections were prepared with a freezing microtome, stained with Neutral Red and inspected on a phase contrast microscope. The position of the tip of the microdialysis probe in the NAc (core and shell) and mPFC were then corroborated by following the tract of the microdialysis probe through a series of brain sections. […]
compound,measurement,setting,value
"[O-][S@@+](Cc1cncs1)C(c1cccc(Cl)c1)c1cccc(Cl)c1 [(S)-MK-26, (S)-5-(((B(3-chlorophenyl)methyl)sulphinyl)methyl)thiazole]",DA Concentrations (as Determined from AUCs),"NAc core dialysate, 1 mg/kg i.p.",3056 ± 644
same,DA Concentrations (as Determined from AUCs),"NAc core dialysate, 10 mg/kg i.p.",7861 ± 1697
same,peak increase of extracellular dopamine concentration above basal values,"NAc core, 1 mg/kg i.p.",about 25%
same,peak increase of extracellular dopamine concentration,"NAc core, 10 mg/kg i.p., peak 60–75 min after treatment",about 65%
same,DA Concentrations (as Determined from AUCs),"NAc shell dialysate, 1 mg/kg i.p.",2972 ± 1094
same,DA Concentrations (as Determined from AUCs),"NAc shell dialysate, 10 mg/kg i.p.",7730 ± 1389
same,peak increase of extracellular dopamine concentration,"NAc shell, 10 mg/kg i.p., peak 30–45 min after treatment",about 70%
same,DA Concentrations (as Determined from AUCs),"mPFC dialysate, 1 mg/kg i.p.",3159 ± 223
same,DA Concentrations (as Determined from AUCs),"mPFC dialysate, 10 mg/kg i.p.",4983 ± 547
same,peak increase of extracellular dopamine concentration,"mPFC, 1 mg/kg i.p., peak at 30 min after treatment",about 40%
same,peak increase of extracellular dopamine concentration,"mPFC, 10 mg/kg i.p., peak at 45 min after treatment",about 75%
